Measured values published in the supplement of paper PMC10307832.

What was measured:
Assay in all cases: relative viability (nuclei count vs DMSO), 5 days (fraction); higher = more cells survive
Alpelisib + Vorinostat = compound: Cc1nc(NC(=O)N2CCC[C@H]2C(N)=O)sc1-c1ccnc(C(C)(C)C(F)(F)F)c1 [Alpelisib] + O=C(CCCCCCC(=O)Nc1ccccc1)NO [Vorinostat] (partner 1 µM)
How it was run: (§1)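 A single step with final 0.05% Triton X-100, 1% formaldehyde and 1 ug/ml Hoechst fixed the cells and stained nuclei 5 days after treatment. Lung cancer cell lines in 1536-well plates had been treated by pin tool the day after seeding with one drug alone or a fixed anchor-drug dose plus five library-drug doses (not always all listed) in √10 steps, and nuclei were counted on 4× images. Relative viability is the ratio of nuclei in treated wells to nuclei in vehicle wells, taken as the median of duplicate plates.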

Vemurafenib + Phenformin = compound: CCCS(=O)(=O)Nc1ccc(F)c(C(=O)c2c[nH]c3ncc(-c4ccc(Cl)cc4)cc23)c1F [Vemurafenib] + N=C(N)NC(=N)NCCc1ccccc1 [Phenformin] (partner 250 µM)
How it was run: as §1

Alpelisib + Trametinib = compound: Cc1nc(NC(=O)N2CCC[C@H]2C(N)=O)sc1-c1ccnc(C(C)(C)C(F)(F)F)c1 [Alpelisib] + CC(=O)Nc1cccc(-n2c(=O)n(C3CC3)c(=O)c3c(Nc4ccc(I)cc4F)n(C)c(=O)c(C)c32)c1 [Trametinib] (partner 0.02 µM)
How it was run: as §1

Alpelisib + Navitoclax = compound: Cc1nc(NC(=O)N2CCC[C@H]2C(N)=O)sc1-c1ccnc(C(C)(C)C(F)(F)F)c1 [Alpelisib] + CC1(C)CCC(c2ccc(Cl)cc2)=C(CN2CCN(c3ccc(C(=O)NS(=O)(=O)c4ccc(N[C@H](CCN5CCOCC5)CSc5ccccc5)c(S(=O)(=O)C(F)(F)F)c4)cc3)CC2)C1 [Navitoclax] (partner 0.5 µM)
How it was run: as §1

| Cell Line | relative viability (Alpelisib + Vorinostat; first compound 0.04 µM) | relative viability (Alpelisib + Vorinostat; first compound 0.1265 µM) | relative viability (Alpelisib + Vorinostat; first compound 0.4 µM) | relative viability (Alpelisib + Vorinostat; first compound 1.265 µM) | relative viability (Alpelisib + Vorinostat; first compound 4 µM) | relative viability (Vemurafenib + Phenformin; first compound 0.03162 µM) | relative viability (Vemurafenib + Phenformin; first compound 0.1 µM) | relative viability (Vemurafenib + Phenformin; first compound 0.3162 µM) | relative viability (Vemurafenib + Phenformin; first compound 1 µM) | relative viability (Alpelisib + Trametinib; first compound 0.04 µM) | relative viability (Alpelisib + Trametinib; first compound 0.1265 µM) | relative viability (Alpelisib + Trametinib; first compound 0.4 µM) | relative viability (Alpelisib + Trametinib; first compound 1.265 µM) | relative viability (Alpelisib + Trametinib; first compound 4 µM) | relative viability (Alpelisib + Navitoclax; first compound 0.04 µM) | relative viability (Alpelisib + Navitoclax; first compound 0.1265 µM) | relative viability (Alpelisib + Navitoclax; first compound 0.4 µM) | relative viability (Alpelisib + Navitoclax; first compound 1.265 µM) | relative viability (Alpelisib + Navitoclax; first compound 4 µM) |
| --- | --- | --- | --- | --- | --- | --- | --- | --- | --- | --- | --- | --- | --- | --- | --- | --- | --- | --- | --- |
| NCI-H2342 | 0.795 | 0.622 | 0.712 | 0.662 | 0.714 | 0.443 | 0.574 | 0.622 | 0.737 | 0.754 | 0.854 | 0.671 | 0.604 | 0.67 |  |  |  |  |  |
| SW 1573 | 0.833 | 0.684 | 0.678 | 0.388 | 0.584 | 0.386 | 0.308 | 0.4 | 0.395 | 0.562 | 0.586 | 0.553 | 0.363 | 0.388 | 0.903 | 0.879 | 1.03 | 0.768 | 0.585 |
| NCI-H1792 |  |  |  |  |  | 0.228 | 0.236 | 0.115 | 0.336 | 0.271 | 0.383 | 0.467 | 0.324 | 0.314 | 0.619 | 0.582 | 0.702 | 0.514 | 0.336 |
| LOU-NH91 | 0.936 | 0.785 | 0.823 | 0.715 | 0.556 | 0.644 |  |  | 0.731 | 0.773 | 0.686 | 0.696 | 0.649 | 0.591 | 0.707 | 0.637 | 0.526 | 0.504 | 0.343 |
| LC-2-ad | 0.664 | 0.721 | 0.744 | 0.575 | 0.496 | 0.549 | 0.583 |  | 0.569 | 0.902 | 0.93 | 0.968 | 0.764 | 0.738 | 0.441 | 0.394 | 0.364 | 0.332 | 0.285 |
| HOP-62 | 0.665 | 0.558 | 0.683 | 0.456 | 0.491 | 0.628 | 0.651 | 0.585 | 0.595 | 0.353 | 0.376 | 0.434 | 0.384 | 0.384 | 1 | 0.893 | 1.12 | 0.606 | 1.06 |
| NCI-H650 | 0.394 | 0.314 | 0.538 | 0.35 | 0.325 | 0.437 | 0.443 |  | 0.37 | 0.996 | 0.921 | 0.962 | 0.749 | 0.774 |  |  |  |  |  |
| NCI-H1651 | 0.534 | 0.619 | 0.552 | 0.517 | 0.504 | 0.318 | 0.295 | 0.325 | 0.311 | 0.752 | 0.828 | 0.807 | 0.759 | 0.561 | 0.956 | 1.11 | 1.04 | 0.773 | 0.791 |
| CAL-12T | 0.755 | 0.783 | 0.948 | 0.468 | 0.64 | 0.538 | 0.453 | 0.602 | 0.552 | 0.371 | 0.259 | 0.378 | 0.266 | 0.193 | 1.35 | 1.29 | 1.22 | 1.16 | 1.47 |
| LK-2 | 0.261 | 0.264 | 0.261 | 0.234 | 0.306 | 0.396 | 0.609 | 0.398 | 0.185 | 0.633 | 0.829 | 0.738 | 0.384 | 0.365 | 0.751 | 0.72 | 0.697 | 0.374 | 0.507 |
| EKVX | 0.584 | 0.657 | 0.928 | 0.597 | 0.456 | 0.223 |  | 0.223 | 0.213 | 0.306 | 0.334 | 0.27 | 0.341 | 0.249 | 0.969 | 0.903 | 1.12 | 0.84 | 0.75 |
| EMC-BAC-2 | 0.448 |  | 0.455 | 0.278 | 0.261 | 0.509 | 0.461 | 0.26 | 0.452 | 0.818 |  | 0.892 | 0.529 | 0.599 | 1.11 | 1.08 | 1.17 | 0.956 | 0.879 |
| NCI-H520 | 0.611 | 0.743 | 0.629 | 0.603 | 0.463 | 0.564 | 0.702 | 0.435 | 0.496 | 0.62 | 0.574 | 0.549 | 0.491 | 0.429 | 1.02 | 0.905 | 1.07 | 1.03 | 0.822 |
| NCI-H322M | 0.897 | 0.962 | 0.954 | 0.733 | 0.634 | 0.714 |  |  | 0.724 | 0.516 | 0.497 | 0.49 | 0.367 | 0.411 | 0.908 | 1.07 | 1.29 | 0.941 | 0.936 |
| COR-L 105 | 0.867 | 0.86 | 0.784 | 0.668 | 0.838 | 0.399 |  |  | 0.5 | 0.422 | 0.458 | 0.493 | 0.37 | 0.447 | 0.607 | 0.633 | 0.728 | 0.615 | 0.554 |
